Results as given in patent EP4707277A1, “NOVEL HETEROCYCLIC AMINE DERIVATIVES AND PHARMACEUTICAL COMPOSITION COMPRISING SAME” (Daewoong Pharmaceutical Co., Ltd., priority 2023, dated 2024).
Read-outs that look alike come from different tables or passages of the source.

How the values were obtained:
[1] = target: T1, BTK (Homo sapiens, UniProt Q06187); assay: Inhibitory activity against BTK, ADP-Glo Kinase system (Promega); assay type: biochemical
T1 construct: purchased Signalchem B10-10H
Procedure, shortened: (§1)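 ADP-Glo luminescent ADP detection with recombinant human ITK (4 ng/reaction) or BTK (10 ng/reaction) and poly(Glu4,Tyr1) substrate at 0.2 µg/µl. Buffer: Tris pH 7.5, MgCl2, MnCl2, BSA, DTT. ATP 1 mM or Km (BTK 10 µM, ITK 25 µM); 1% DMSO; 1 h at 30°C; IC50 from curve fit.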

[2] = target: T2, ITK (Homo sapiens, UniProt Q08881); assay: Inhibitory activity against ITK, ADP-Glo Kinase system (Promega); assay type: biochemical
T2 construct: purchased Signalchem I13-11G-10
T2 sequence (Q08881 1-620): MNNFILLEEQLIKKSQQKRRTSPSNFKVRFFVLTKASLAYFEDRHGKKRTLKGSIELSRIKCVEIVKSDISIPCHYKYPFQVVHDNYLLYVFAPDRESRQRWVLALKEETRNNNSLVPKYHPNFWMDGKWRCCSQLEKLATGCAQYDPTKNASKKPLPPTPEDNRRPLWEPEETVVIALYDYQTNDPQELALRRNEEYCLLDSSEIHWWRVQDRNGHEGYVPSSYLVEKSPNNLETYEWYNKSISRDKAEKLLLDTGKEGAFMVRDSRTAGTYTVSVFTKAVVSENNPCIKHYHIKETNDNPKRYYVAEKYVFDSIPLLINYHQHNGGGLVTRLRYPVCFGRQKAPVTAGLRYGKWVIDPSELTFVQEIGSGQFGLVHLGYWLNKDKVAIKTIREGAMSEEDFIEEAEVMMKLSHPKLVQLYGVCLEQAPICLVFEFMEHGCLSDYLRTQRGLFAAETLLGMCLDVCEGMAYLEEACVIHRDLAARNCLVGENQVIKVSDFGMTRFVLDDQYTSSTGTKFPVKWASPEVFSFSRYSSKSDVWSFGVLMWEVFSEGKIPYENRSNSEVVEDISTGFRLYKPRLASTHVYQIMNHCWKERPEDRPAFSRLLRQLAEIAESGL
Procedure, shortened: as §1

[3] = Km ATP (BTK: 10 uM), read-out: BTK IC50(nM) Km ATP
[4] = Km ATP (ITK: 25uM), read-out: ITK IC50(nM) Km ATP
[5] = 1mM ATP, read-out: BTK IC50(nM) 1mM ATP
[6] = 1mM ATP, read-out: ITK IC50(nM) 1mM ATP

T1 sequence (Q06187 whole entry): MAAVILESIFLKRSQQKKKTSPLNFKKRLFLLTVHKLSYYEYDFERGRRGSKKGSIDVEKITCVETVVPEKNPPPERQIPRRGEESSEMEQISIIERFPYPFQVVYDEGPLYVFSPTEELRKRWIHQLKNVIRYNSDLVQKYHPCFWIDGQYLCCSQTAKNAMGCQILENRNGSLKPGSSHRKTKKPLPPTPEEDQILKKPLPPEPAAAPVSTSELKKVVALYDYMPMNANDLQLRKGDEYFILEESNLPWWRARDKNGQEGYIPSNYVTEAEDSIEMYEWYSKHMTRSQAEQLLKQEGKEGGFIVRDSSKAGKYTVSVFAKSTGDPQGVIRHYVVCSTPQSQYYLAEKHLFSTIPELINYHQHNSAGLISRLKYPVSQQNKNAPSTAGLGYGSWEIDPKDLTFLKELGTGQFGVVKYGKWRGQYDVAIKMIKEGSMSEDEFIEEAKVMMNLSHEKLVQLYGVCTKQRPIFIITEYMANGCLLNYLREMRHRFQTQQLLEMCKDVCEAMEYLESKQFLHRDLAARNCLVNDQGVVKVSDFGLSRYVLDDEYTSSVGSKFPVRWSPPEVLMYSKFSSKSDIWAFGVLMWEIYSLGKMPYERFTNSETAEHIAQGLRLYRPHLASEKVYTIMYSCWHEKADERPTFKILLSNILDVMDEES

IC50 [1, 3] [nM] | IC50 [2, 4] [nM] | IC50 [1, 5] [nM] | IC50 [2, 6] [nM] | Compound
≤ 20 | 20 to 100 | – | – | C=CC(=O)N1CC=C(c2nc(Nc3ncc(C)s3)cc3c2ccn3CC2CCCC2)CC1 [Example 10, 1-(4-(1-(cyclopentylmethyl)-6-((5-methylthiazol-2-yl)amino)-1H-pyrrolo[3,2-c]pyridin-4-yl)-3,6-dihydropyridin-1(2H)-yl)prop-2-en-1-one]
≤ 20 | ≤ 20 | – | – | C=CC(=O)Nc1c(F)ccc(-c2nc(Nc3ncc(C)s3)cc3c2ccn3C)c1F [Example 57, N-(2,6-difluoro-3-(1-methyl-6-((5-methylthiazol-2-yl)amino)-1H-pyrrolo[3,2-c]pyridin-4-yl)phenyl)acrylamide]
– | – | ≤ 20 | ≤ 20 | C=CC(=O)N1CC[C@H](Oc2nc(Nc3ncc(C)s3)cc3c2ccn3C2CCCC2)C1 [Example 99, (S)-1-(3-((1-cyclopentyl-6-((5-methylthiazol-2-yl)amino)-1H-pyrrolo[3,2-c]pyridin-4-yl)oxy)pyrrolidin-1-yl)prop-2-en-1-one]
– | – | ≤ 20 | ≤ 20 | C=CC(=O)N1CC[C@H](Oc2nc(Nc3ncc(C)s3)cc3c2ccn3CC(C)(C)O)C1 [Example 140, (S)-1-(3-((1-(2-hydroxy-2-methylpropyl)-6-((5-methylthiazol-2-yl)amino)-1H-pyrrolo[3,2-c]pyridin-4-yl)oxy)pyrrolidin-1-yl)prop-2-en-1-one]
– | – | ≤ 20 | ≤ 20 | C=CC(=O)N1CCC[C@@H]1COc1nc(Nc2ncc(C)s2)cc2c1ccn2CC(F)(F)F [Example 207, (R)-1-(2-(((6-((5-methylthiazol-2-yl)amino)-1-(2,2,2-trifluoroethyl)-1H-pyrrolo[3,2-c]pyridin-4-yl)oxy)methyl)pyrrolidin-1-yl)prop-2-en-1-one]
– | – | > 500 | > 500 | C=CC(=O)N1CC[C@H](Oc2nc(Nc3nccc(OC)n3)cc3c2ccn3C(C)C)C1 [Example 183, (S)-1-(3-((1-isopropyl-6-((4-methoxypyrimidin-2-yl)amino)-1H-pyrrolo[3,2-c]pyridin-4-yl)oxy)pyrrolidin-1-yl)prop-2-en-1-one]
≤ 20 | ≤ 20 | ≤ 20 | 20 to 100 | C=CC(=O)Nc1cc(-c2nc(Nc3ncc(C)s3)cc3c2ccn3CC2CC2)c(F)cc1F [Example 66, N-(5-(1-(cyclopropylmethyl)-6-((5-methylthiazol-2-yl)amino)-1H-pyrrolo[3,2-c]pyridin-4-yl)-2,4-difluorophenyl)acrylamide]
– | – | ≤ 20 | ≤ 20 | C=CC(=O)N1C[C@@H](F)[C@H](Oc2nc(Nc3ncc(C)s3)cc3c2ccn3C)C1 [Example 157, 1-((3R,4R)-3-fluoro-4-((1-methyl-6-((5-methylthiazol-2-yl)amino)-1H-pyrrolo[3,2-c]pyridin-4-yl)oxy)pyrrolidin-1-yl)prop-2-en-1-one]
– | – | ≤ 20 | ≤ 20 | C=CC(=O)N1CC[C@H](Oc2nc(Nc3ncc(C)s3)cc3c2ccn3CCF)C1 [Example 188, (S)-1-(3-((1-(2-fluoroethyl)-6-((5-methylthiazol-2-yl)amino)-1H-pyrrolo[3,2-c]pyridin-4-yl)oxy)pyrrolidin-1-yl)prop-2-en-1-one]
– | – | ≤ 20 | ≤ 20 | C=CC(=O)N1CCC[C@@H]1COc1nc(Nc2ncc(C)s2)cc2c1ccn2CC(F)F [Example 210, (R)-1-(2-(((1-(2,2-difluoroethyl)-6-((5-methylthiazol-2-yl)amino)-1H-pyrrolo[3,2-c]pyridin-4-yl)oxy)methyl)pyrrolidin-1-yl)prop-2-en-1-one]
– | – | ≤ 20 | ≤ 20 | C=CC(=O)N1CC[C@@H]1COc1nc(Nc2ncc(C)s2)cc2c1ccn2CC(F)(F)F [Example 208, (R)-1-(2-(((6-((5-methylthiazol-2-yl)amino)-1-(2,2,2-trifluoroethyl)-1H-pyrrolo[3,2-c]pyridin-4-yl)oxy)methyl)azetidin-1-yl)prop-2-en-1-one]
